Experimental data taken from BigSolDB 2.1.

C[C@@H](O)[C@H]1C(=O)N2C(C(=O)[O-])=C(SC3Cn4cnc[n+]4C3)[C@H](C)[C@H]12 (stereo partly drawn)
solubility (mole fraction)
Details	in DMF	in DMSO	in NMP	in acetone	in acetonitrile	in ethanol	in ethyl acetate	in isopropanol	in methanol	in n-propanol
283.15 K	5.8e-05	–	7.58e-05	1.77e-06	3.63e-05	1.49e-05	5.21e-05	6.66e-06	1.86e-05	1.17e-05
288.15 K	6.44e-05	–	8.14e-05	2.51e-06	4.07e-05	1.76e-05	5.73e-05	8.24e-06	2.19e-05	1.37e-05
293.15 K	7.11e-05	7.86e-05	8.79e-05	3.4e-06	4.61e-05	2.09e-05	6.48e-05	9.98e-06	2.59e-05	1.62e-05
298.15 K	7.8e-05	8.66e-05	9.66e-05	4.57e-06	5.17e-05	2.46e-05	7.16e-05	1.2e-05	3.07e-05	1.97e-05
303.15 K	8.72e-05	9.47e-05	0.000106	5.97e-06	5.82e-05	2.9e-05	7.97e-05	1.41e-05	3.57e-05	2.32e-05
308.15 K	9.65e-05	0.000104	0.000117	8.13e-06	6.67e-05	3.41e-05	8.9e-05	1.69e-05	4.18e-05	2.7e-05
313.15 K	0.000107	0.000116	0.000128	1.06e-05	7.46e-05	3.97e-05	9.93e-05	2e-05	4.9e-05	3.19e-05
318.15 K	0.000119	0.000129	0.000141	1.39e-05	8.5e-05	4.54e-05	0.000111	2.37e-05	5.63e-05	3.71e-05
323.15 K	0.000131	0.000142	0.000156	1.79e-05	9.56e-05	5.23e-05	0.000123	2.79e-05	6.61e-05	4.32e-05
